In patent publication US6660741B2, “Asymmetric synthesis of (S,S,R)-(-)-actinonin and its analogs and uses therefor” (Sloan-Kettering Institute for Cancer Research, priority 2001, dated 2003):
Where two headings read alike, the source gives them in different places.

Tests used:
Format in all cases: cell-based
[1] = test system: HL60 (acute myeloid leukemia, CD13 positive) cells; assay: Inhibition of tritiated thymidine incorporation, 5 day, HL60; details: HL60, 5 days
Protocol: (§1) Actinonin was purchased from Sigma (St. Louis, Mo.). Biotinylated-Actinonin and all analogs were synthesized. Actinonin stock solution was 5 mg/ml in 10% ethanol. Biotinylated-actinonin and all other analogs were diluted in 10% DMSO to give stock solutions in the range of 1-20 mg/ml.
(§2) Daudi (B lineage Burkitt's lymphoma, CD13 negative) and HL60 (acute myeloid leukemia, CD13 positive) cells were maintained in culture using RPMI 1640 supplemented with 10% heat-inactivated FBS (Omega Scientific, Inc., Tarzana, Calif.) and 1% L-glutamine (Gibco/Invitrogen, Carlsbad, Calif.) at 37° C. in a humidified atmosphere of 5% CO2. Cell viability was higher than 90%, and cells were free of mycoplasma contamination.
(§3) An aliquot of 200 ul of cells (10,000 cells/well) was washed and incubated at 37° C. in 96-well plates in the presence or absence of actinonin/analogs. Serial dilutions were made in complete media. After 5 days of incubation, 50 ul of 10 uCi/mL tritiated thymidine (PerkinElmer, Boston, Mass.) was added to each well and allowed to incorporate for 5 hours. Plates were frozen at −80° C. overnight and cells were harvested onto filtermats (Wallac, Finland) using a semi-automatic harvester (Skatron, Sterling, Va.). Filtermats were counted in a 1205 Betaplate™ liquid scintillation counter (Wallac, Finland). The reference numbers refer to those analogs disclosed in Example 6. Compounds 35, 42, 48, 52, 53, and 56 are effective at inhibiting cell growth.

[2] = test system: Daudi (B lineage Burkitt's lymphoma, CD13 negative) cells; assay: Inhibition of tritiated thymidine incorporation, 5 day, Daudi; details: 5 days
Protocol: as §1, §2, §3

Daudi and HL60 cells = assay: Thymidine incorporation, summary statement on cell growth (Daudi and HL60); details: summary of Tables 4 and 5
Protocol: as §1, §2, §3

[3] = Homo sapiens, HL-60, 120 h, read-out: HL60 IC50 (uM), 5 day thymidine incorporation
[4] = Homo sapiens, HL-60, 120 h, read-out: HL60 IC50 (ug/mL), 5 day thymidine incorporation
[5] = Homo sapiens, 120 h, read-out: Daudi IC50 (uM), 5 day thymidine incorporation
[6] = Homo sapiens, 120 h, read-out: Daudi IC50 (ug/mL), 5 day thymidine incorporation

Structure (SMILES) | HL60 IC50 (ug/mL), 5 day thymidine incorporation [1] [µg/mL] | IC50 ([1]; read-out: HL60 IC50 (uM), 5 day thymidine incorporation) [µM] | Daudi IC50 (ug/mL), 5 day thymidine incorporation [2] [µg/mL] | IC50 ([2]; read-out: Daudi IC50 (uM), 5 day thymidine incorporation) [µM] | IC50 [1, 3] [µM] | IC50 [1, 4] [µg/mL] | IC50 [2, 5] [µM] | IC50 [2, 6] [µg/mL] | inhibiting cell growth (Daudi and HL60 cells)
CCCCC[C@H](CC(N)=O)C(=O)N[C@H](C(=O)N1CCC[C@H]1C)C(C)C (stereo in doubt) [Compound 51, N1-(1-(2-methyl-pyrrolidine-1-carbonyl)-2-methyl-propyl)-2-pentyl-succinamide] | – | – | – | – | 19.5 | 6.9 | 18.7 | 6.6 | –
CCCC[C@@H](C=O)NC(=O)[C@H](CC(C)C)NC(=O)OCc1ccccc1 [Calpeptin, reference compound] | – | – | – | – | 138 | 50 | 16.6 | 6 | –
CCCCC[C@H](CC(=O)NO)C(=O)N[C@@H](CC(C)C)C(=O)N1CCC[C@H]1CO [Compound 35, N4-hydroxy-N1-(1-(2-hydroxymethyl-pyrrolidine-1-carbonyl)-3-methyl-butyl)-2-pentyl-succinamide] | – | – | – | – | 17.7 | 7.1 | 14.1 | 5.7 | effective
CCCCC[C@H](CC(=O)NO)C(=O)N[C@@H](Cc1ccccc1)C(=O)N1CCC[C@H]1CO [Compound 42, N1-(1-benzyl-2-(2-hydroxymethyl-pyrrolidin-1-yl)-2-oxo-ethyl)-N4-hydroxy-2-pentyl-succinamide] | – | – | – | – | 15.8 | 7.1 | 12.9 | 5.8 | effective
CC(C)[C@H](NC(=O)[C@H](C)CC(=O)NO)C(=O)N1CCC[C@H]1CO [Compound 48, N4-hydroxy-N1-(1-(2-hydroxymethyl-pyrrolidine-1-carbonyl)-2-methyl-propyl)-2-methyl-succinamide] | – | – | – | – | 29.5 | 10.5 | 22.4 | 8 | effective
CCCCC[C@H](CC(N)=O)C(=O)N[C@@H](CC(C)C)C(=O)N1CCC[C@H]1CO [Compound 49, N1-(1-(2-hydroxymethyl-pyrrolidine-1-carbonyl)-3-methyl-butyl)-2-pentyl-succinamide] | – | – | – | – | > 130 | > 50 | > 130 | > 50 | –
CCCCC[C@H](CC(=O)NO)C(=O)N[C@@H](Cc1ccccc1)C(=O)N1CCC[C@H]1C [Compound 52] | – | – | – | – | 12.1 | 5.2 | 2.7 | 1.2 | effective
CCCCC[C@H](CC(=O)NO)C(=O)N[C@H](C(=O)N1CCC[C@H]1CN)C(C)C [Compound 53, N4-hydroxy-N1-(1-(2-methylamine-pyrrolidine-1-carbonyl)-2-methyl-propyl)-2-pentyl-succinamide] | – | – | – | – | 26 | 10 | 18.2 | 7 | effective
CCCCC[C@H](CC(=O)O)C(=O)N[C@@H](Cc1ccccc1)C(=O)N1CCC[C@H]1CO [Compound 54, 3-[1-(2-hydroxymethyl-pyrrolidin-1-yl)-2-benzylcarbamoyl]-octanoic acid] | – | – | – | – | > 239 | > 100 | – | – | –
CCCCC[C@H](CC(=O)NO)C(=O)N[C@H](C(=O)N1CCC[C@H]1C(=O)OC)C(C)C [Compound 55] | – | – | – | – | 6.7 | 2.77 | 0.97 | 0.402 | –
CCCCC[C@H](CC(=O)NO)C(=O)N[C@H](C(=O)N1CCC[C@H]1C(=O)O)C(C)C [Compound 56, N4-hydroxy-N1-(1-(2-carboxy-pyrrolidine-1-carbonyl)-2-methyl-propyl)-2-pentyl-succinamide] | – | – | – | – | > 251 | > 100 | > 251 | > 100 | effective
CCCCC[C@H](CC(=O)N(CC)CC)C(=O)N[C@@H](Cc1ccccc1)C(=O)N1CCC[C@H]1CO [Compound 57] | – | – | – | – | > 211 | > 100 | – | – | –
CCCCC[C@H](CC(=O)NCC)C(=O)N[C@@H](Cc1ccccc1)C(=O)N1CCC[C@H]1CO [Compound 58] | – | – | – | – | > 225 | > 100 | – | – | –

Now from value to molecule, other results behind:

HL60 IC50 (ug/mL), 5 day thymidine incorporation [1] [µg/mL] | IC50 ([1]; read-out: HL60 IC50 (uM), 5 day thymidine incorporation) [µM] | Daudi IC50 (ug/mL), 5 day thymidine incorporation [2] [µg/mL] | IC50 ([2]; read-out: Daudi IC50 (uM), 5 day thymidine incorporation) [µM] | IC50 [1, 3] [µM] | IC50 [1, 4] [µg/mL] | IC50 [2, 5] [µM] | IC50 [2, 6] [µg/mL] | Structure (SMILES) | inhibiting cell growth (Daudi and HL60 cells)
>100 | > 395 | >100 | > 395 | – | – | – | – | O=C(O)CNC(=O)C(CS)Cc1ccccc1 (racemic) [DL-Thiorphan, reference compound] | –
– | – | – | – | > 176 | > 100 | – | – | CCCCC[C@H](CC(=O)NCc1ccc(OC)cc1OC)C(=O)N[C@@H](Cc1ccccc1)C(=O)N1CCC[C@H]1CO [Compound 59] | –
– | – | – | – | 196 | 90 | – | – | CCCCC[C@H](CC(=O)NN(C)C)C(=O)N[C@@H](Cc1ccccc1)C(=O)N1CCC[C@H]1CO [Compound 60, 2-(N′,N′-dimethyl-hydrazinocarbonylmethyl)-heptanoic acid [1-benzyl-2-(2-hydroxymethyl-pyrrolidin-1-yl)-2-oxo-ethyl]-amide] | –
– | – | – | – | > 181 | > 100 | – | – | CCCCC[C@H](CC(=O)NCc1ccc([N+](=O)[O-])cc1)C(=O)N[C@@H](Cc1ccccc1)C(=O)N1CCC[C@H]1CO [Compound 61] | –
– | – | – | – | > 200 | > 100 | – | – | CCCCC[C@H](CC(=O)N1CCN(C)CC1)C(=O)N[C@@H](Cc1ccccc1)C(=O)N1CCC[C@H]1CO [Compound 62, 2-[2-(4-methyl-piperazin-1-yl)-2-oxo-ethyl]-heptanoic acid [1-benzyl-2-(2-hydroxymethyl-pyrrolidin-1-yl)-2-oxo-ethyl]-amide] | –
– | – | – | – | > 224 | > 100 | – | – | CCCCC[C@H](CC(=O)NOC)C(=O)N[C@@H](Cc1ccccc1)C(=O)N1CCC[C@H]1CO [Compound 63] | –
– | – | – | – | > 206 | > 100 | – | – | CCCCC[C@H](CC(=O)N1CCCCC1)C(=O)N[C@@H](Cc1ccccc1)C(=O)N1CCC[C@H]1CO [Compound 64] | –
– | – | – | – | > 217 | > 100 | – | – | CCCCC[C@H](CC(=O)N(C)OC)C(=O)N[C@@H](Cc1ccccc1)C(=O)N1CCC[C@H]1CO [Compound 65] | –
